# Reference: US9394311B2, “Triazolo compounds as PDE10 inhibitors” (Hoffmann-La Roche Inc., priority 2012, dated 2016)
# pIC50: −log10 of the molar value.
# Biological target: human PDE10A (Homo sapiens (Human), UniProt Q9Y233)
# Assay: human PDE10A full length Scintillation Proximity Assay (SPA)
# Assay type: biochemical
# Conditions: PDE10A full length enzyme, 50 nM cGMP / [3H]-cGMP substrate, 20 minutes at room temperature
# Protocol: The following test was carried out in order to determine the activity of the compounds of the present invention. PDE10 activity of the compounds of the present invention was determined using a Scintillation Proximity Assay (SPA)-based method similar to the one previously described (Fawcett, L. et al., Proc Natl Acad Sci USA (2000) 97(7):3702-3707).
# The human PDE10A full length assay was performed in 96-well micro titer plates. The reaction mixture of 50 μl contained 20 mM HEPES pH=7.5/10 mM MgCl2/0.05 mg/ml BSA (Sigma cat. # A-7906), 50 nM cGMP (Sigma, cat. # G6129) and 50 nM [3H]-cGMP (GE Healthcare, cat. # TRK392 S.A. 13.2 Ci/mmol), 3.75 ng/well PDE10A enzyme (Enzo Life Science, Lausen, Switzerland cat # SE-534) with or without a specific test compound. A range of concentrations of the potential inhibitor was used to generate data for calculating the concentration of inhibitor resulting in 50% of the effect (e.g. IC50, the concentration of the competitor inhibiting PDE10A activity by 50%). Non-specific activity was tested without the enzyme. The reaction was initiated by the addition of the substrate solution (cGMP and [3H]-cGMP) and allowed to progress for 20 minutes at room temperature. The reaction was terminated by adding 25 μl of YSi-SPA scintillation beads (GE Healthcare, cat. # RPNQ0150) in 18 mM zinc sulphate solution (stop reagent). After 1 h under shaking, the plate was centrifuged one minute at 170 g to allow beads to settle. Afterwards, radioactive counts were measured on a Perkin Elmer Top-Count Scintillation plate reader.
# human PDE10A, sequence (Q9Y233 other isoform, or with tags, fused parts or gaps): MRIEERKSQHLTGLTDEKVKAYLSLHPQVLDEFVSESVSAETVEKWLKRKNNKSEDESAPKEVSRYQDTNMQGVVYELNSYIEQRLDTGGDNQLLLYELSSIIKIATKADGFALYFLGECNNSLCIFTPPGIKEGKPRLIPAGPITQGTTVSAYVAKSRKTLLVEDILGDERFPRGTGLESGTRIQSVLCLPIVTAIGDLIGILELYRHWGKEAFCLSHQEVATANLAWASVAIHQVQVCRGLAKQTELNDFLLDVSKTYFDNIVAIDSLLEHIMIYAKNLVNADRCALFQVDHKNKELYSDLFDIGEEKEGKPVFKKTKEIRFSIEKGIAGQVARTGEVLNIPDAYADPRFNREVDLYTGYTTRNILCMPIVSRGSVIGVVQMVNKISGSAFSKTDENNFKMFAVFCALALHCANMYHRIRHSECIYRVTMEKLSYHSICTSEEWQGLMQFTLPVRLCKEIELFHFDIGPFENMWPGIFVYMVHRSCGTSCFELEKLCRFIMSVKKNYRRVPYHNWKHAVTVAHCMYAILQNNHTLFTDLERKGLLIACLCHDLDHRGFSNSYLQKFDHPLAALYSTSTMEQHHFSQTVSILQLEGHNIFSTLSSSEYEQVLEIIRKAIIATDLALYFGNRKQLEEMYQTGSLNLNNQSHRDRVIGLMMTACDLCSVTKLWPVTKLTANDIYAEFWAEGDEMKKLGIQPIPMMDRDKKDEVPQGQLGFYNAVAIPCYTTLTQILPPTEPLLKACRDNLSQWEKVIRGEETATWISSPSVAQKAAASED
row,SMILES,pIC50
1,"Cc1c(C#N)cc(C#N)c2nc(CCc3nc(N4CCCC4)nn3C)nn12 [Example 78, 5-Methyl-2-[2-(2-methyl-5-pyrrolidin-1-yl-2H-[1,2,4]triazol-3-yl)-ethyl]-[1,2,4]triazolo[1,5-c]pyridine-6,8-dicarbonitrile]",7.51
2,"Cc1c(Cl)cc(C(C)(C)O)c2nc(CCc3nc(N4CCCC4)nn3C)nn12 [Example 80, 2-{6-Chloro-5-methyl-2-[2-(2-methyl-5-pyrrolidin-1-yl-2H-[1,2,4]triazol-3-yl)-ethyl]-[1,2,4]triazolo[1,5-c]pyridin-8-yl}-propan-2-ol]",7.12
3,"Cc1cnc(C)n2nc(/C=C/c3nc(N4CCC4)nn3C)nc12 [Example 81, 2-[(E)-2-(5-Azetidin-1-yl-2-methyl-2H-[1,2,4]triazol-3-yl)-vinyl]-5,8-dimethyl-[1,2,4]triazolo[1,5-c]pyrimidine]",7.13
4,"Cc1ncc(C)n2nc(CCc3nc(N4CCCC4=O)nn3C)nc12 [Example 87, 1-{5-[2-(5,8-Dimethyl-[1,2,4]triazolo[1,5-a]pyrazin-2-yl)-ethyl]-1-methyl-1H-[1,2,4]triazol-3-yl}-pyrrolidin-2-one]",6.54
5,"Cc1ncc(C)n2nc(CCc3nc(N4CC(C)C4)nn3C)nc12 [Example 89, 5,8-Dimethyl-2-{2-[2-methyl-5-(3-methyl-azetidin-1-yl)-2H-[1,2,4]triazol-3-yl]-ethyl}-[1,2,4]triazolo[1,5-a]pyrazine]",6.97
6,"Cc1ncc(C)n2nc(CCc3nc(N4CC(F)(F)C4)nn3C)nc12 [Example 90, 2-{2-[5-(3,3-Difluoro-azetidin-1-yl)-2-methyl-2H-[1,2,4]triazol-3-yl]-ethyl}-5,8-dimethyl-[1,2,4]triazolo[1,5-a]pyrazine]",6.32
7,"Cc1ncc(C)n2nc(CCc3nc(N4CCC5(CC5)C4)nn3C)nc12 [Example 92, 2-{2-[5-(5-Aza-spiro[2.4]hept-5-yl)-2-methyl-2H-[1,2,4]triazol-3-yl]-ethyl}-5,8-dimethyl-[1,2,4]triazolo[1,5-a]pyrazine]",7.86
8,"Cc1ncc(C)n2nc(CCc3nc(N4CCC(F)(F)C4)nn3C)nc12 [Example 93, 2-{2-[5-(3,3-Difluoro-pyrrolidin-1-yl)-2-methyl-2H-[1,2,4]triazol-3-yl]-ethyl}-5,8-dimethyl-[1,2,4]triazolo[1,5-a]pyrazine]",6.78
9,"Cc1ncc(C)n2nc(CCc3nc(N4CC[C@H](F)C4)nn3C)nc12 [Example 94, 2-{2-[5-((S)-3-Fluoro-pyrrolidin-1-yl)-2-methyl-2H-[1,2,4]triazol-3-yl]-ethyl}-5,8-dimethyl-[1,2,4]triazolo[1,5-a]pyrazin]",6.91
10,"Cc1ncc(C)n2nc(CCc3nc(N4CC[C@@H](F)C4)nn3C)nc12 [Example 96, 2-{2-[5-((R)-3-Fluoro-pyrrolidin-1-yl)-2-methyl-2H-[1,2,4]triazol-3-yl]-ethyl}-5,8-dimethyl-[1,2,4]triazolo[1,5-a]pyrazine]",7.97
11,"Cc1ncc(C)n2nc(/C=C/c3nc(N(C)CC4CC4)nn3C)nc12 [Example 97, Cyclopropylmethyl-{5-[(E)-2-(5,8-dimethyl-[1,2,4]triazolo[1,5-a]pyrazin-2-yl)-vinyl]-1-methyl-1H-[1,2,4]triazol-3-yl}-methyl-amine]",7.10
12,"Cc1ncc(C)n2nc(CCc3nc(N4CC5CCC5C4)nn3C)nc12 (stereo not drawn) [Example 99, 2-{2-[5-(3-Aza-bicyclo[3.2.0]hept-3-yl)-2-methyl-2H-[1,2,4]triazol-3-yl]-ethyl}-5,8-dimethyl-[1,2,4]triazolo[1,5-a]pyrazine]",6.56
13,"Cc1ncc(C)n2nc(CCc3nc(N4CCC[C@H]4C)nn3C)nc12 [Example 101, 5,8-Dimethyl-2-{2-[2-methyl-5-((R)-2-methyl-pyrrolidin-1-yl)-2H-[1,2,4]triazol-3-yl]-ethyl}-[1,2,4]triazolo[1,5-a]pyrazine]",7.24
14,"Cc1ncc(C)n2nc(/C=C/c3nc(N4CCCCCC4)nn3C)nc12 [Example 102, 2-[(E)-2-(5-Azepan-1-yl-2-methyl-2H-[1,2,4]triazol-3-yl)-vinyl]-5,8-dimethyl-[1,2,4]triazolo[1,5-a]pyrazine]",6.75
15,"Cc1nc(C(F)(F)F)n2nc(CCc3nc(N4CCCC4)nn3C)nc2c1C [Example 103, 7,8-Dimethyl-2-(2-(1-methyl-3-(pyrrolidin-1-yl)-1H-1,2,4-triazol-5-yl)ethyl)-5-(trifluoromethyl)-[1,2,4]triazolo[1,5-c]pyrimidine]",7.99

# The remaining compounds from weak to strong by pIC50, led by results:
row,pIC50,SMILES
1,8.00,"Cc1c(Cl)cc(C2CC2)c2nc(CCc3nc(N4CCCC4)nn3C)nn12 [Example 77, 6-Chloro-8-cyclopropyl-5-methyl-2-[2-(2-methyl-5-pyrrolidin-1-yl-2H-[1,2,4]triazol-3-yl)-ethyl]-[1,2,4]triazolo[1,5-a]pyridine]"
2,8.01,"Cc1c(Cl)cc(C(F)(F)F)c2nc(CCc3nc(N4CCC(F)(F)C4)nn3C)nn12 [Example 88, 6-Chloro-2-{2-[5-(3,3-difluoro-pyrrolidin-1-yl)-2-methyl-2H-[1,2,4]triazol-3-yl]-ethyl}-5-methyl-8-trifluoromethyl-[1,2,4]triazolo[1,5-c]pyridine]"
3,8.16,"Cc1c(C#N)cc(C(F)(F)F)c2nc(CCc3nc(N4CCCC4)nn3C)nn12 [Example 83, 5-Methyl-2-(2-(1-methyl-3-(pyrrolidin-1-yl)-1H-1,2,4-triazol-5-yl)ethyl)-8-(trifluoromethyl)-[1,2,4]triazolo[1,5-a]pyridine-6-carbonitrile]"
4,8.26,"Cc1ncc(C)n2nc(CCc3nc(N4CCC[C@@H]4C)nn3C)nc12 [Example 100, 5,8-Dimethyl-2-{2-[2-methyl-5-((S)-2-methyl-pyrrolidin-1-yl)-2H-[1,2,4]triazol-3-yl]-ethyl}-[1,2,4]triazolo[1,5-a]pyrazine]"
5,8.37,"Cc1c(Cl)cc(O)c2nc(CCc3nc(N4CCCC4)nn3C)nn12 [Example 85, 6-Chloro-5-methyl-2-(2-(1-methyl-3-(pyrrolidin-1-yl)-1H-1,2,4-triazol-5-yl)ethyl)-[1,2,4]triazolo[1,5-a]pyridin-8-ol]"
6,8.42,"CCc1cnc(C)n2nc(CCc3nc(N4CCCC4)nn3C)nc12 [Example 75, 8-Ethyl-5-methyl-2-(2-(1-methyl-3-(pyrrolidin-1-yl)-1H-1,2,4-triazol-5-yl)ethyl)-[1,2,4]triazolo[1,5-c]pyrimidine]"
7,8.46,"CCc1cc(C(F)(F)F)c2nc(CCc3nc(N4CCCC4)nn3C)nn2c1C [Example 86, 6-Ethyl-5-methyl-2-[2-(2-methyl-5-pyrrolidin-1-yl-2H-[1,2,4]triazol-3-yl)-ethyl]-8-trifluoromethyl-[1,2,4]triazolo[1,5-a]pyridine]"
8,8.65,"Cc1c(Cl)cc(C#N)c2nc(CCc3nc(N4CCCC4)nn3C)nn12 [Example 79, 6-Chloro-5-methyl-2-[2-(2-methyl-5-pyrrolidin-1-yl-2H-[1,2,4]triazol-3-yl)-ethyl]-[1,2,4]triazolo[1,5-c]pyridine-8-carbonitrile]"
9,8.67,"Cc1c(C#N)cc(Cl)c2nc(CCc3nc(N4CCCC4)nn3C)nn12 [Example 74, 8-Chloro-5-methyl-2-[2-(2-methyl-5-pyrrolidin-1-yl-2H-[1,2,4]triazol-3-yl)-ethyl]-[1,2,4]triazolo[1,5-c]pyridine-6-carbonitrile]"
10,8.84,"Cc1cc(C(F)(F)F)c2nc(CCc3nc(N4CCCC4)nn3C)nn2c1C [Example 84, 5,6-Dimethyl-2-(2-(1-methyl-3-(pyrrolidin-1-yl)-1H-1,2,4-triazol-5-yl)ethyl)-8-(trifluoromethyl)-[1,2,4]triazolo[1,5-a]pyridine]"
11,9.06,"Cc1c(Cl)cc(C(F)(F)F)c2nc(C#Cc3nc(N4CCCC4)nn3C)nn12 [Example 91, 6-Chloro-5-methyl-2-(2-methyl-5-pyrrolidin-1-yl-2H-[1,2,4]triazol-3-ylethynyl)-8-trifluoromethyl-[1,2,4]triazolo[1,5-a]pyridine]"
12,9.29,"Cc1c(Cl)cc(OCC(F)(F)F)c2nc(CCc3nc(N4CCCC4)nn3C)nn12 [Example 98, 6-Chloro-5-methyl-2-[2-(2-methyl-5-pyrrolidin-1-yl-2H-[1,2,4]triazol-3-yl)-ethyl]-8-(2,2,2-trifluoro-ethoxy)-[1,2,4]triazolo[1,5-c]pyridine]"
13,9.32,"Cc1c(Br)cc(C(F)(F)F)c2nc(CCc3nc(N4CCCC4)nn3C)nn12 [Example 82, 6-Bromo-5-methyl-2-[2-(2-methyl-5-pyrrolidin-1-yl-2H-[1,2,4]triazol-3-yl)-ethyl]-8-trifluoromethyl-[1,2,4]triazolo[1,5-c]pyridine]"
14,9.36,"COc1cc(Cl)c(C)n2nc(CCc3nc(N4CCCC4)nn3C)nc12 [Example 76, 6-Chloro-8-methoxy-5-methyl-2-[2-(2-methyl-5-pyrrolidin-1-yl-2H-[1,2,4]triazol-3-yl)-ethyl]-[1,2,4]triazolo[1,5-a]pyridine]"
15,9.64,"Cc1c(Cl)cc(OC(F)F)c2nc(CCc3nc(N4CCCC4)nn3C)nn12 [Example 95, 6-Chloro-8-difluoromethoxy-5-methyl-2-[2-(2-methyl-5-pyrrolidin-1-yl-2H-[1,2,4]triazol-3-yl)-ethyl]-[1,2,4]triazolo[1,5-c]pyridine]"
